≈ marks a conversion by molar mass, not a printed value. Where “and” joins values, the source holds several entries; their conditions need not be identical. Identical values can stand only once.
How the values were obtained:
Assay in all cases: ≥ marks a high value that may be exact or a test limit, other limits are often not marked, values filed in µg/mL are converted to µM
[1] = system: Erwinia amylovora PMV 6076
[2] = system: Pseudomonas syringae pv. actinidiae Psa3700.1.1
[3] = system: Pseudomonas syringae pv. syringae EPS 94
[4] = system: Xanthomonas arboricola pv. pruni CFBP 5563
[5] = system: Xanthomonas campestris pv. Vesicatoria 2133-2
[6] = system: Xanthomonas fragariae Xf349-9A
[7] = system: Bacillus subtilis KCTC 3068
[8] = system: Enterococcus faecium ATCC 51559
[9] = system: Pseudomonas aeruginosa CCARM 2095
[10] = system: Pseudomonas aeruginosa CCARM 2109
[11] = system: Pseudomonas aeruginosa KCTC 1637
[12] = system: Salmonella typhimurium KCTC 1926
[13] = system: Staphylococcus aureus CCARM 3089
[14] = system: Staphylococcus aureus CCARM 3090
[15] = system: Staphylococcus aureus CCARM 3095
[16] = system: Staphylococcus epidermidis KCTC 1917
[17] = system: Aspergillus flavus KCTC 6905
[18] = system: Candida albicans CCARM 14001
[19] = system: Candida albicans CCARM 14004
[20] = system: Candida albicans CCARM 14007
[21] = system: Candida albicans CCARM 14020
[22] = system: Candida albicans KCTC 7270
[23] = system: Candida krusei CCARM 14017
[24] = system: Candida parapsilosis CCARM 14016
[25] = system: Colletotrichum gloeosporioides KCTC 6169
[26] = system: Fusarium graminearum KCTC 16656
[27] = system: Fusarium oxysporum KCTC 16909
[28] = system: Fusarium solani KCTC 6326
[29] = system: Fusarium verticillioides KCTC 6149
[30] = system: Trichoderma virens KCTC 16924
[31] = system: Trichoderma viride KCTC 16992
[32] = system: Trichophyton rubrum KCTC 6345
[33] = system: Candida albicans ATCC 14053
[34] = system: Escherichia coli ATCC 11775
[35] = system: Micrococcus luteus ATCC 49732
[36] = system: Staphylococcus aureus ATCC 12600
Bacillus subtilis = system: Bacillus subtilis
Enterococcus faecalis = system: Enterococcus faecalis
Enterococcus faecium = system: Enterococcus faecium
[37] = system: Escherichia coli ATCC 25922
Klebsiella pneumoniae = system: Klebsiella pneumoniae
[38] = system: Pseudomonas aeruginosa PAO1
[39] = system: Staphylococcus aureus ATCC 43300
[40] = system: Staphylococcus epidermidis BCM0060
Streptococcus pneumoniae = system: Streptococcus pneumoniae
[41] = system: Acinetobacter baumannii ATCC 19606
[42] = system: Klebsiella pneumoniae ATCC 13883
[43] = system: Pseudomonas aeruginosa ATCC 27853
[44] = system: Staphylococcus aureus ATCC 29213
[45] = system: Staphylococcus haemolyticus
[46] = system: Staphylococcus lugdunensis
Staphylococcus warneri = system: Staphylococcus warneri

## CC[C@H](C)[C@H](NC(=O)CNC(=O)[C@@H](N)Cc1ccc(O)cc1)C(=O)N[C@@H](Cc1cnc[nH]1)C(=O)N[C@H](C(=O)N[C@@H](Cc1cnc[nH]1)C(N)=O)[C@@H](C)O [YGIHTH]
[1]
  MIC: ≥ 50 µM
[2]
  MIC: ≥ 50 µM
[3]
  MIC: ≥ 50 µM
[4]
  MIC: ≥ 50 µM
[5]
  MIC: ≥ 50 µM
[6]
  MIC: ≥ 50 µM

## C[C@H](NC(=O)[C@H](CCCCN)NC(=O)[C@H](Cc1ccc(O)cc1)NC(=O)[C@H](Cc1c[nH]c2ccccc12)NC(=O)[C@H](CCCCN)NC(=O)[C@H](CCCCN)NC(=O)[C@H](Cc1ccccc1)NC(=O)[C@H](CCCN=C(N)N)NC(=O)[C@@H](N)CCCCN)C(=O)N[C@@H](Cc1c[nH]c2ccccc12)C(=O)N[C@@H](CCCN=C(N)N)C(=O)N[C@@H](CCCCN)C(=O)N[C@@H](CCCCN)C(=O)N[C@@H](Cc1c[nH]c2ccccc12)C(=O)N[C@@H](CCCN=C(N)N)C(=O)N[C@@H](CCCCN)C(=O)N[C@@H](Cc1ccc(O)cc1)C(N)=O [KRFKKWYKAWRKKWRKY]
[7]
  MIC: 4 µM (≈ 9.94 µg/mL)
[8]
  MIC: 2 µM (≈ 4.97 µg/mL)
[9]
  MIC: 4 µM (≈ 9.94 µg/mL)
[10]
  MIC: 4 µM (≈ 9.94 µg/mL)
[11]
  MIC: 2 µM (≈ 4.97 µg/mL)
[12]
  MIC: 1 µM (≈ 2.49 µg/mL)
[13]
  MIC: 2 µM (≈ 4.97 µg/mL)
[14]
  MIC: 2 µM (≈ 4.97 µg/mL)
[15]
  MIC: 2 µM (≈ 4.97 µg/mL)
[16]
  MIC: 2 µM (≈ 4.97 µg/mL)

## NCCCC[C@H](NC(=O)[C@H](CCCCN)NC(=O)[C@H](Cc1cnc[nH]1)NC(=O)[C@H](CCCCN)NC(=O)[C@H](CCCCN)NC(=O)[C@@H](N)Cc1cnc[nH]1)C(N)=O [HKKHKK]
[17]
  MIC: ≥ 64 µM
[18]
  MIC: ≥ 64 µM
[19]
  MIC: ≥ 64 µM
[20]
  MIC: ≥ 64 µM
[21]
  MIC: ≥ 64 µM
[22]
  MIC: ≥ 64 µM
[23]
  MIC: ≥ 64 µM
[24]
  MIC: ≥ 64 µM
[25]
  MIC: 16 µM (≈ 12.9 µg/mL)
[26]
  MIC: ≥ 64 µM
[27]
  MIC: ≥ 64 µM
[28]
  MIC: ≥ 32 µM
[29]
  MIC: ≥ 32 µM
[30]
  MIC: ≥ 32 µM
[31]
  MIC: ≥ 64 µM
[32]
  MIC: ≥ 64 µM

## CC(C)[C@H](NC(=O)[C@H](C)NC(=O)[C@@H](NC(=O)CNC(=O)[C@@H]1CCCN1)[C@@H](C)O)C(=O)N[C@@H](Cc1ccccc1)C(=O)N[C@@H](C)C(=O)O [PGTAVFA]
[33]
  MIC: ≥ 1010 µM
[34]
  MIC: ≥ 1010 µM
[35]
  MIC: ≥ 1010 µM
[36]
  MIC: ≥ 1010 µM

## CC[C@H](C)[C@H](NC(=O)[C@H](CCCCN)NC(=O)[C@H](Cc1c[nH]c2ccccc12)NC(=O)[C@H](CCCN=C(N)N)NC(=O)[C@H](CCCN=C(N)N)NC(=O)CNC(=O)[C@H](Cc1cnc[nH]1)NC(=O)CNC(=O)CN)C(=O)N[C@H](C(=O)N[C@H](C(=O)N[C@H](C(=O)N[C@@H](CCCN=C(N)N)C(=O)N[C@@H](Cc1c[nH]c2ccccc12)C(=O)N[C@@H](CCCN=C(N)N)C(=O)N[C@@H](CCCN=C(N)N)C(N)=O)[C@@H](C)CC)C(C)C)C(C)C [GGHGRRWKIVVIRWRR]
Bacillus subtilis
  MIC: 1.33 µM (≈ 2.7 µg/mL)
Enterococcus faecalis
  MIC: 1 µM (≈ 2.03 µg/mL)
Enterococcus faecium
  MIC: 0.3 µM (≈ 0.609 µg/mL)
[37]
  MIC: 1 µM and 3 µM
Klebsiella pneumoniae
  MIC: 4.7 µM (≈ 9.55 µg/mL)
[38]
  MIC: 1.7 µM (≈ 3.45 µg/mL)
[39]
  MIC: 1.3 µM and 2.7 µM
[40]
  MIC: 2.3 µM (≈ 4.67 µg/mL)
Streptococcus pneumoniae
  MIC: 9.3 µM (≈ 18.9 µg/mL)

## CC(C)C[C@H](NC(=O)CN)C(=O)N[C@@H](CC(C)C)C(=O)N[C@@H](CCCN=C(N)N)C(=O)N[C@@H](C)C(=O)N[C@@H](CO)C(=O)N[C@@H](CO)C(=O)N[C@@H](CCCCN)C(=O)N[C@@H](Cc1c[nH]c2ccccc12)C(=O)NCC(=O)N[C@@H](CCCN=C(N)N)C(=O)N[C@@H](CCCCN)C(=O)N[C@@H](Cc1ccc(O)cc1)C(=O)N[C@@H](Cc1ccc(O)cc1)C(=O)N[C@H](C(=O)N[C@@H](CC(=O)O)C(=O)N[C@@H](CC(C)C)C(=O)N[C@@H](C)C(=O)NCC(=O)N[C@@H](CS)C(=O)N[C@@H](C)C(=O)N[C@@H](CCCCN)C(=O)N[C@@H](C)C(=O)O)C(C)C [GLLRASSKWGRKYYVDLAGCAKA]
[41]
  MIC: 8 µM (≈ 20.1 µg/mL)
[37]
  MIC: 11.3 µM (≈ 28.4 µg/mL)
[42]
  MIC: 8 µM (≈ 20.1 µg/mL)
[43]
  MIC: 8 µM (≈ 20.1 µg/mL)
[44]
  MIC: 1 µM (≈ 2.51 µg/mL)
[45]
  MIC: 24.9 µM (≈ 62.5 µg/mL)
[46]
  MIC: 24.9 µM (≈ 62.5 µg/mL)
Staphylococcus warneri
  MIC: 12.5 µM (≈ 31.3 µg/mL)
